Results taken from ChEMBL document CHEMBL1201862, “PubChem BioAssay data set” (2004).
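Values below derive from 48-hour exposures of cells grown in 96-well plates, with endpoints linearly interpolated between the two concentrations bracketing the appropriate inhibition level. Here, GI50 denotes the concentration required for 50% inhibition of growth.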 Active and inactive are the calls of the source. Cut-off read from the data, not from the text of the source: active = GI50 up to about 1.1 µM and inactive = higher.

Tests used:
Assay in all cases: growth of human tumour cells (NCI), 48 h
DMS-114 = tested on: DMS-114
SF-539 = tested on: SF-539
EKVX = tested on: EKVX
CAKI-1 = tested on: CAKI-1
SNB-78 = tested on: SNB-78
ACHN = tested on: ACHN
HT-29 = tested on: HT-29
DLD-1 = tested on: DLD-1
NCI-H226 = tested on: NCI-H226
XF498 = tested on: XF498
HCC 2998 = tested on: HCC 2998
HOP-92 = tested on: HOP-92
NCI-H23 = tested on: NCI-H23
TK-10 = tested on: TK-10
CCRF-CEM = tested on: CCRF-CEM
SNB-75 = tested on: SNB-75
KM12 = tested on: KM12
SR = tested on: SR
HOP-62 = tested on: HOP-62
Malme-3M = tested on: Malme-3M
RPMI-8226 = tested on: RPMI-8226
COLO 205 = tested on: COLO 205
NCI-H460 = tested on: NCI-H460
OVCAR-4 = tested on: OVCAR-4
SF-295 = tested on: SF-295
HCT-15 = tested on: HCT-15
SN12C = tested on: SN12C
OVCAR-3 = tested on: OVCAR-3
U-251 = tested on: U-251
SK-MEL-5 = tested on: SK-MEL-5
UO-31 = tested on: UO-31
UACC-257 = tested on: UACC-257
KM-20L2 = tested on: KM-20L2
IGROV-1 = tested on: IGROV-1
M19-MEL = tested on: M19-MEL
DMS-273 = tested on: DMS-273
MOLT-4 = tested on: MOLT-4
UACC-62 = tested on: UACC-62
LOX IMVI = tested on: LOX IMVI
SK-OV-3 = tested on: SK-OV-3
SNB-19 = tested on: SNB-19
SW-620 = tested on: SW-620
LXFL 529 = tested on: LXFL 529
SK-MEL-28 = tested on: SK-MEL-28
K562 = tested on: K562
OVCAR-5 = tested on: OVCAR-5
HOP-18 = tested on: HOP-18
M14 = tested on: M14
786-0 = tested on: 786-0
SK-MEL-2 = tested on: SK-MEL-2
OVCAR-8 = tested on: OVCAR-8
NCI-H522 = tested on: NCI-H522
SF-268 = tested on: SF-268
A549 = tested on: A549
HL-60 = tested on: HL-60
RXF 393 = tested on: RXF 393
HCT-116 = tested on: HCT-116
A498 = tested on: A498

Nc1cc(O)nc(SC2=NC(N)CC(O)C2)n1 (stereo not drawn)
GI50 (DMS-114): > 100 µM (inactive) | GI50 (SF-539): > 100 µM (inactive) | GI50 (EKVX): > 100 µM (inactive) | GI50 (CAKI-1): > 100 µM (inactive) | GI50 (SNB-78): > 100 µM (inactive) | GI50 (ACHN): > 100 µM (inactive) | GI50 (HT-29): > 100 µM (inactive) | GI50 (DLD-1): > 100 µM (inactive) | GI50 (NCI-H226): > 100 µM (inactive) | GI50 (XF498): > 100 µM (inactive) | GI50 (HCC 2998): > 100 µM (inactive) | GI50 (HOP-92): > 100 µM (inactive) | GI50 (NCI-H23): > 100 µM (inactive) | GI50 (TK-10): > 100 µM (inactive) | GI50 (CCRF-CEM): > 100 µM (inactive) | GI50 (SNB-75): > 100 µM (inactive) | GI50 (KM12): > 100 µM (inactive) | GI50 (SR): > 100 µM (inactive) | GI50 (HOP-62): > 100 µM (inactive) | GI50 (Malme-3M): > 100 µM (inactive) | GI50 (RPMI-8226): > 100 µM (inactive) | GI50 (COLO 205): > 100 µM (inactive) | GI50 (NCI-H460): > 100 µM (inactive) | GI50 (OVCAR-4): > 100 µM (inactive) | GI50 (SF-295): > 100 µM (inactive) | GI50 (HCT-15): > 100 µM | GI50 (SN12C): > 100 µM (inactive) | GI50 (OVCAR-3): > 100 µM (inactive) | GI50 (U-251): > 100 µM (inactive) | GI50 (SK-MEL-5): > 100 µM (inactive) | GI50 (UO-31): > 100 µM (inactive) | GI50 (UACC-257): > 100 µM (inactive) | GI50 (KM-20L2): > 100 µM (inactive) | GI50 (IGROV-1): > 100 µM (inactive) | GI50 (M19-MEL): > 100 µM (inactive) | GI50 (DMS-273): > 100 µM (inactive) | GI50 (MOLT-4): > 100 µM (inactive) | GI50 (UACC-62): > 100 µM (inactive) | GI50 (LOX IMVI): > 100 µM (inactive) | GI50 (SK-OV-3): > 100 µM (inactive) | GI50 (SNB-19): > 100 µM (inactive) | GI50 (SW-620): 42.5 µM (inactive) | GI50 (LXFL 529): > 100 µM (inactive) | GI50 (SK-MEL-28): > 100 µM (inactive) | GI50 (K562): > 100 µM (inactive) | GI50 (OVCAR-5): > 100 µM (inactive) | GI50 (HOP-18): > 100 µM (inactive) | GI50 (M14): > 100 µM (inactive) | GI50 (786-0): > 100 µM (inactive) | GI50 (SK-MEL-2): > 100 µM (inactive) | GI50 (OVCAR-8): > 100 µM (inactive) | GI50 (NCI-H522): > 100 µM (inactive)

CCc1c(Cc2[nH]c(Cc3[nH]c(C=O)c(C)c3CC)c(CC)c2CC)[nH]c(C=O)c1C
GI50 (DMS-114): > 100 µM (inactive) | GI50 (SF-539): > 100 µM (inactive) | GI50 (EKVX): > 100 µM (inactive) | GI50 (CAKI-1): > 100 µM (inactive) | GI50 (SNB-78): > 100 µM (inactive) | GI50 (ACHN): > 100 µM (inactive) | GI50 (HT-29): > 100 µM (inactive) | GI50 (DLD-1): > 100 µM (inactive) | GI50 (NCI-H226): > 100 µM (inactive) | GI50 (XF498): > 100 µM (inactive) | GI50 (HCC 2998): > 100 µM (inactive) | GI50 (TK-10): > 100 µM (inactive) | GI50 (CCRF-CEM): 66.7 µM (inactive) | GI50 (SNB-75): 34.6 µM (inactive) | GI50 (KM12): > 10 µM (inactive) | GI50 (SR): > 100 µM (inactive) | GI50 (HOP-62): > 100 µM (inactive) | GI50 (Malme-3M): > 100 µM (inactive) | GI50 (RPMI-8226): > 100 µM (inactive) | GI50 (COLO 205): > 100 µM (inactive) | GI50 (SF-268): > 100 µM (inactive) | GI50 (A549): > 100 µM (inactive) | GI50 (NCI-H460): > 100 µM (inactive) | GI50 (SF-295): > 100 µM (inactive) | GI50 (HCT-15): > 100 µM | GI50 (SN12C): > 100 µM (inactive) | GI50 (OVCAR-3): > 100 µM (inactive) | GI50 (U-251): > 100 µM (inactive) | GI50 (SK-MEL-5): > 100 µM (inactive) | GI50 (UO-31): > 100 µM (inactive) | GI50 (KM-20L2): > 100 µM (inactive) | GI50 (M19-MEL): > 100 µM (inactive) | GI50 (DMS-273): > 100 µM (inactive) | GI50 (MOLT-4): > 100 µM (inactive) | GI50 (UACC-62): > 100 µM (inactive) | GI50 (LOX IMVI): > 100 µM (inactive) | GI50 (SK-OV-3): > 100 µM (inactive) | GI50 (SNB-19): > 100 µM (inactive) | GI50 (SW-620): > 100 µM (inactive) | GI50 (HL-60): > 100 µM (inactive) | GI50 (LXFL 529): > 100 µM (inactive) | GI50 (SK-MEL-28): > 100 µM (inactive) | GI50 (K562): > 100 µM (inactive) | GI50 (RXF 393): 39 µM (inactive) | GI50 (HCT-116): > 100 µM (inactive) | GI50 (HOP-18): > 100 µM (inactive) | GI50 (M14): > 100 µM (inactive) | GI50 (786-0): > 100 µM (inactive) | GI50 (SK-MEL-2): > 10 µM (inactive) | GI50 (OVCAR-8): > 100 µM (inactive) | GI50 (NCI-H522): > 100 µM (inactive)

CCOc1ccc2c(c1)[n+]([O-])c(-c1nc3ccccc3s1)c(N)[n+]2[O-]
GI50 (DMS-114): 44.1 µM (inactive) | GI50 (SF-539): 43.1 µM (inactive) | GI50 (EKVX): 53.1 µM (inactive) | GI50 (CAKI-1): 83.4 µM (inactive) | GI50 (SNB-78): > 100 µM (inactive) | GI50 (ACHN): 55.1 µM (inactive) | GI50 (HT-29): 58.7 µM (inactive) | GI50 (DLD-1): 76.4 µM (inactive) | GI50 (NCI-H226): 45.4 µM (inactive) | GI50 (XF498): 25.8 µM (inactive) | GI50 (HCC 2998): 96.6 µM (inactive) | GI50 (HOP-92): 26.2 µM (inactive) | GI50 (NCI-H23): 25.6 µM (inactive) | GI50 (TK-10): > 100 µM (inactive) | GI50 (CCRF-CEM): 48 µM (inactive) | GI50 (SNB-75): 57.4 µM (inactive) | GI50 (KM12): 60.7 µM (inactive) | GI50 (HOP-62): 88.7 µM (inactive) | GI50 (Malme-3M): > 100 µM (inactive) | GI50 (RPMI-8226): 44.3 µM (inactive) | GI50 (COLO 205): > 100 µM (inactive) | GI50 (SF-268): 32.1 µM (inactive) | GI50 (A549): 61.8 µM (inactive) | GI50 (NCI-H460): 58.7 µM (inactive) | GI50 (OVCAR-4): 65.5 µM (inactive) | GI50 (SF-295): 50 µM (inactive) | GI50 (HCT-15): 49.5 µM | GI50 (SN12C): 82.6 µM (inactive) | GI50 (OVCAR-3): 38.4 µM (inactive) | GI50 (U-251): 46.7 µM (inactive) | GI50 (SK-MEL-5): 30.3 µM (inactive) | GI50 (UO-31): 31.3 µM (inactive) | GI50 (UACC-257): 42.1 µM (inactive) | GI50 (KM-20L2): > 100 µM (inactive) | GI50 (IGROV-1): 75.9 µM (inactive) | GI50 (M19-MEL): > 100 µM (inactive) | GI50 (DMS-273): 52.6 µM (inactive) | GI50 (MOLT-4): 36.7 µM (inactive) | GI50 (UACC-62): 64.7 µM (inactive) | GI50 (LOX IMVI): 64 µM (inactive) | GI50 (SK-OV-3): > 100 µM (inactive) | GI50 (A498): 61.8 µM (inactive) | GI50 (SNB-19): 48.1 µM (inactive) | GI50 (SW-620): 86.7 µM (inactive) | GI50 (HL-60): 31.2 µM (inactive) | GI50 (LXFL 529): 37.4 µM (inactive) | GI50 (SK-MEL-28): 38.7 µM (inactive) | GI50 (K562): 61.9 µM (inactive) | GI50 (OVCAR-5): > 100 µM (inactive) | GI50 (HOP-18): 15.4 µM (inactive) | GI50 (M14): 60.7 µM (inactive) | GI50 (786-0): 48.4 µM (inactive) | GI50 (SK-MEL-2): 52.8 µM (inactive) | GI50 (OVCAR-8): 75.2 µM (inactive) | GI50 (NCI-H522): 21.6 µM (inactive)
